Source: patent US12545685B2 (Daiichi Sankyo Company, Limited, priority 2011, dated 2026)
Structures can show the parent of a compound that is named as a salt.

Key:
[1] = target: T1, Mdm2/p53 binding (GST-Mdm2 / His-p53) (Homo sapiens, UniProt Q00987, L33E); experiment: Mdm2/p53 binding assay (HTRF, His-p53 and GST-Mdm2); settings: His-p53 (aa 1-132) and GST-Mdm2 (aa 25-108, L33E) 6.25 nM each; 25°C, 1 hour; values given as ranges
T1 construct: Mdm2 partial protein having Mdm2 amino acids at positions 25 to 108
T1 sequence (Q00987 25-108 L33E): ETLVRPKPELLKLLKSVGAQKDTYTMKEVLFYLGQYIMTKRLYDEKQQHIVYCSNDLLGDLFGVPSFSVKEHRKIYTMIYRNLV
Method in brief: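 His-p53 (aa 1–132) and GST-Mdm2 (aa 25–108, L33E) were prepared at 6.25 nM each in the protein dilution (20 mM HEPES pH 7.4, 150 mM NaCl, 0.1% BSA). Compound in 10% DMSO buffer and XL665 anti-His/Eu anti-GST antibodies (KF buffer) were added, with 1 h at 25 °C. The 665/620 nm TR-FRET ratio gave T/C and a sigmoid-fitted IC50.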

[2] = test system: human lung cancer-derived cell line NCI-H460 having wild-type p53; experiment: Cell growth inhibition assay (MTT); format: cell-based; settings: 72 h, NCI-H460 cells, 3 days culture, values given as ranges, read-out: 50% growth inhibition concentration (GI50 value)
Procedure: A cell growth inhibition assay was conducted using a human lung cancer-derived cell line NCI-H460 having wild-type p53.
NCI-H460 cells were suspended in a medium (RPMI1640 medium containing 10% fetal bovine serum) and the suspension was added in an amount of 500 cells/150 μl/well to a 96-well plate. A test compound was dissolved in DMSO and this solution was diluted with medium to prepare a sample solution (DMSO concentration: 1% or lower). On the next day, medium nonsupplemented with the test compound, or the sample solution, was added in an amount of 50 μl/well. Cells were then cultured at 37° ° C. for 3 days in a 5% CO2 atmosphere.
An MTT assay was conducted immediately after the nonsupplemented medium or the sample solution was added. Another MTT assay was conducted after culturing the cells for 3 days. The MIT assays were conducted as shown below.
A 5 mg/ml MTT (3-(4,5-dimethylthiazol-2-yl)-2,5-diphenyltetrazolium bromide, Sigma-Aldrich Co., M-2128) solution was prepared using a phosphate buffer solution (Dulbecco's Phosphate-buffered Saline). This MIT solution was added in an amount of 20 μl/well. Then the plate was cultured at 37° ° C. for 4 hours in a 5% CO2 atmosphere. The plate was centrifuged at 1200 rpm for 5 minutes and then the culture supernatant was removed by aspiration using a dispenser. DMSO was added in an amount of 150 μl/well to dissolve generated formazan. The plate was stirred using a plate mixer for uniform color development from each well. The absorbance of each well was measured at OD 540 nm and at a reference OD (660 nm) using a plate reader (SpectraMax PLUS384, Molecular Devices, CA, USA).
The OD value measured on the day of adding the sample solution was defined as S. The OD value measured three days after addition of the sample solution was defined as T. The OD value measured three days after addition of the DMSO dilution was defined as C. T/C (%) was determined at each concentration according to the formula shown below in order to prepare a dose response curve, from which 50% growth inhibition concentration (GI50 value) was calculated.

SMILES | IC50 [1] | GI50 [2]
CC1(C)CCC2(CC1)N[C@@H](C(=O)N[C@H]1CC[C@H](O)CC1)[C@H](c1cccc(Cl)c1F)[C@]21C(=O)Nc2cc(Cl)ccc21 (relative stereo) [Example 1, (3′R, 4′S,5′R)-6″-chloro-4′-(3-chloro-2-fluorophenyl)-N-(trans-4-hydroxycyclohexyl)-4,4-dimethyl-2″-oxo-1″,2″-dihydrodispiro[cyclohexane-1,2′-pyrrolidine-3′,3″-indole]-5′-carboxamide] | 50 to 100 nM | 100 to 500 nM
CC1(C)CCC2(CC1)N[C@@H](C(=O)N[C@H]1CC[C@H](CO)CC1)[C@H](c1cccc(Cl)c1F)[C@]21C(=O)Nc2nc(Cl)ccc21 (relative stereo) [Example 2, (3′R, 4′S,5′R)-6″-chloro-4′-(3-chloro-2-fluorophenyl)-N-[trans-4-(hydroxymethyl)cyclohexyl]-4,4-dimethyl-2″-oxo-1″,2″-dihydrodispiro[cyclohexane-1,2′-pyrrolidine-3′,3″-pyrrolo[2,3-b]pyridine]-5′-carboxamide] | 50 to 100 nM | 1000 to 5000 nM
O=C(N[C@H]1CC[C@H](O)CC1)[C@@H]1NC2(CCCCC2)[C@@]2(C(=O)Nc3cc(Cl)ccc32)[C@H]1c1cccc(Cl)c1F (relative stereo) [Example 4, (3′R, 4′S,5′R)-6″-chloro-4′-(3-chloro-2-fluorophenyl)-N-(trans-4-hydroxycyclohexyl)-2″-oxo-1″,2″-dihydrodispiro[cyclohexane-1,2′-pyrrolidine-3′,3″-indole]-5′-carboxamide] | 100 to 500 nM | 1000 to 5000 nM
CC1(C)CCC2(CC1)N[C@@H](C(=O)N[C@H]1CC[C@H](c3nnco3)CC1)[C@H](c1cccc(Cl)c1F)[C@]21C(=O)Nc2nc(Cl)ccc21 (relative stereo) [Example 5, (3′R, 4′S,5′R)-6″-chloro-4′-(3-chloro-2-fluorophenyl)-4,4-dimethyl-N-[trans-4-(1,3,4-oxadiazol-2-yl)cyclohexyl]-2″-oxo-1″,2″-dihydrodispiro[cyclohexane-1,2′-pyrrolidine-3′,3″-pyrrolo[2,3-b]pyridine]-5′-carboxamide] | 50 to 100 nM | 1000 to 5000 nM
CC1(C)CCC2(CC1)N[C@@H](C(=O)N[C@H]1CC[C@H](O)CC1)[C@H](c1cccc(Cl)c1F)[C@]21C(=O)Nc2nc(Cl)ccc21 (relative stereo) [Example 6, (3′R, 4′S,5′R)-6″-chloro-4′-(3-chloro-2-fluorophenyl)-N-(trans-4-hydroxycyclohexyl)-4,4-dimethyl-2″-oxo-1″,2″-dihydrodispiro[cyclohexane-1,2′-pyrrolidine-3′,3″-pyrrolo[2,3-b]pyridine]-5′-carboxamide] | 1 to 50 nM | 1000 to 5000 nM
CC1(C)CCC2(CC1)N[C@@H](C(=O)N[C@H]1CC[C@H](O)CC1)[C@H](c1ccnc(Cl)c1F)[C@]21C(=O)Nc2cc(Cl)ccc21 (relative stereo) [Example 16, (3′R, 4′S,5′R)-6″-chloro-4′-(2-chloro-3-fluoropyridin-4-yl)-N-(trans-4-hydroxycyclohexyl)-4,4-dimethyl-2″-oxo-1″,2″-dihydrodispiro[cyclohexane-1,2′-pyrrolidine-3′,3″-indole]-5′-carboxamide] | 1 to 50 nM | 100 to 500 nM
CC1(C)CCC2(CC1)N[C@@H](C(=O)N[C@@H]1CC[C@@H](C(O)CO)OC1)[C@H](c1ccnc(Cl)c1F)[C@]21C(=O)Nc2cc(Cl)ccc21 (single isomer, unassigned) [Example 90] | – | 100 to 500 nM
CC1(C)CCC2(CC1)N[C@@H](C(=O)N[C@@H]1CC[C@@H](C(N)=O)OC1)[C@H](c1ccnc(Cl)c1F)[C@]21C(=O)Nc2cc(Cl)ccc21 [Example 70, (3′R, 4′S,5′R)—N-[(3R,6S)-6-carbamoyltetrahydro-2H-pyran-3-yl]-6″-chloro-4′-(2-chloro-3-fluoropyridin-4-yl)-4,4-dimethyl-2″-oxo-1″,2″-dihydrodispiro[cyclohexane-1,2′-pyrrolidine-3′,3″-indole]-5′-carboxamide] | – | < 100 nM
O=C(N[C@@H]1CC[C@@H](CO)OC1)[C@@H]1NC2(CC(CF)(CF)C2)[C@@]2(C(=O)Nc3cc(Cl)ccc32)[C@H]1c1cccc(Cl)c1 [Example 175, (3′R, 4′R, 5′R)-6″-chloro-4′-(3-chlorophenyl)-3,3-bis(fluoromethyl)-N-[(3R,6S)-6-(hydroxymethyl)tetrahydro-2H-pyran-3-yl]-2″-oxo-1″,2″-dihydrodispiro[cyclobutane-1,2′-pyrrolidine-3′,3″-indole]-5′-carboxamide] | 50 to 100 nM | –
O=C(N[C@@H]1CC[C@@H](CO)OC1)[C@@H]1NC2(CC(CF)(CF)C2)[C@@]2(C(=O)Nc3cc(Cl)ccc32)[C@H]1c1cc(F)cc(Cl)c1F [Example 176, (3′R, 4′S,5′R)-6″-chloro-4′-(3-chloro-2,5-difluorophenyl)-3,3-bis(fluoromethyl)-N-[(3R,6S)-6-(hydroxymethyl)tetrahydro-2H-pyran-3-yl]-2″-oxo-1″,2″-dihydrodispiro[cyclobutane-1,2′-pyrrolidine-3′,3″-indole]-5′-carboxamide] | 1 to 50 nM | –
CC1(C)CCC2(CC1)N[C@@H](C(=O)NC1CCN(c3nnn[nH]3)CC1)[C@H](c1ccnc(Cl)c1F)[C@]21C(=O)Nc2cc(Cl)ccc21 [Example 178, (3′R, 4′S,5′8)-6″-chloro-4′-(2-chloro-3-fluoropyridin-4-yl)-4,4-dimethyl-2″-oxo-N-[1-(1H-tetrazol-5-yl)piperidin-4-yl]-1″,2″-dihydrodispiro[cyclohexane-1,2′-pyrrolidine-3′,3″-indole]-5′-carboxamide] | 1 to 50 nM | –
CC1(C)CCC2(CC1)N[C@@H](C(=O)N[C@@H]1CC[C@@H](C(N)=O)OC1)[C@H](c1cccc(Cl)c1F)[C@]21C(=O)Nc2cc(Cl)ccc21 [Example 181, (3′R, 4′S,5′R)-N-[(3R, 6S)-6-carbamoyltetrahydro-2H-pyran-3-yl]-6″-chloro-4′-(3-chloro-2-fluorophenyl)-4,4-dimethyl-2″-oxo-1″,2″-dihydrodispiro[cyclohexane-1,2′-pyrrolidine-3′,3′-indole]-5′-carboxamide] | 1 to 50 nM | –
CC1(C)CCC2(CC1)N[C@@H](C(=O)N[C@@H]1CCC(C)(C(N)=O)OC1)[C@H](c1ccnc(Cl)c1F)[C@]21C(=O)Nc2cc(Cl)ccc21 (stereo partly drawn) [Example 187, (3′R, 4′S,5′R)—N-[(3R)-6-carbamoyl-6-methyltetrahydro-2H-pyran-3-yl]-6″-chloro-4′-(2-chloro-3-fluoropyridin-4-yl)-4,4-dimethyl-2″-oxo-1″,2″-dihydrodispiro[cyclohexane-1,2′-pyrrolidine-3′,3″-indole]-5′-carboxamide] | 1 to 50 nM | –
CC1(C)CCC2(CC1)N[C@@H](C(=O)NC1(C)CC[C@@H](C(N)=O)OC1)[C@H](c1ccnc(Cl)c1F)[C@]21C(=O)Nc2cc(Cl)ccc21 (stereo partly drawn) [Example 189, (3′R, 4′S,5′R)—N-[(6S)-6-carbamoyl-3-methyltetrahydro-2H-pyran-3-yl]-6″-chloro-4′-(2-chloro-3-fluoropyridin-4-yl)-4,4-dimethyl-2″-oxo-1′1,2″-dihydrodispiro[cyclohexane-1,2′-pyrrolidine-3′,3″-indole]-5′-Carboxamide] | 1 to 50 nM | –
C[C@@H](O)[C@@H]1CC[C@@H](NC(=O)[C@@H]2NC3(CCC(C)(C)CC3)[C@@]3(C(=O)Nc4cc(Cl)ncc43)[C@H]2c2ccnc(Cl)c2F)CO1 [Example 192, 6″-Chloro-4′-(2-chloro-3-fluoropyridin-4-yl)-N-{(3R,6S)-6-[(1R)-1-hydroxyethyl]tetrahydro-2H-pyran-3-yl}-4,4-dimethyl-2″-oxo-1″,2″-dihydrodispiro[cyclohexane-1,2′-pyrrolidine-3′,3″-pyrrolo[3,2-c]pyridine]-5′-carboxamide] | 1 to 50 nM | –
CC1(C)CCC2(CC1)N[C@@H](C(=O)N[C@@H]1CC[C@@H](C(N)=O)OC1)[C@H](c1ccnc(Cl)c1F)[C@]21C(=O)Nc2cc(Cl)ccc21 [Example 193, (3′R, 4′S, S′R)—N-[(3R,6S)-6-carbamoyltetrahydro-2H-pyran-3-yl]-6″-chloro-4′-(2-chloro-3-fluoropyridin-4-yl)-4,4-dimethyl-2″-oxo-1″,2″-dihydrodispiro[cyclohexane-1,2′-pyrrolidine-3′,3″-indole]-5′-carboxamide hydrochloride water/2-propanol (IPA) solvate] | 1 to 50 nM | –
